From patent US5258406A, “Sulfonimidamides” (priority 1992, dated 1993)
Where two headings read alike, the source gives them in different places.

Key:
Format in all cases: in vivo
[1] = test system: 6C3HED lymphosarcoma; experiment: animal or person
[2] = test system: HC1
Experimental: (§1) The compounds were tested in C3H mice bearing a 6C3HED lymphosarcoma, also known as the Gardner lymphosarcoma (GLS), and in a variety of human tumor xenografts in CD1 nu/nu mice, including CX-1, LX-1, HXGC3, and VRC5. The 6C3HED lymphosarcoma was obtained from the Division of Cancer Treatment, National […] Institute, Tumor Bank, maintained at E. G. and G. Mason Research (Worcester, Mass.). The CX-1 human colon carcinoma and the LX-1 human lung carcinoma xenografts were obtained from the National Cancer Institute. The HXGC3 and VRC5 human colon xenografts were obtained from Dr. P. J. Houghton, St. Jude Children's Hospital in Memphis (see Br. J. Cancer, 37, 213 (1978)). First passage tumor was stored in liquid nitrogen using standard techniques. The transplanted tumor was reestablished from the Tumor Bank every six months or as needed. The tumor was maintained by serial passage twice weekly in C3H mice.
(§2) In the procedure the tumor was removed from passage animals and minced into 1- to 3-mm square fragments using sterile techniques. Tumor pieces were checked for sterility using both Antibiotic Medium 1 and Brain Heart Infusion (Difco, Detroit, Mich.). Recipient mice were shaved and tumor pieces were implanted subcutaneously in the auxiliary region by trocar. Drug therapy on the appropriate schedule was initiated on the day after tumor implant for 6C3HED and after a seven (7) day delay for xenografts (or other delay as noted in Table 2). The compound being tested was mixed with 2.5% Emulphor EL620 from GAF Corporation (1:40 dilution in saline). Food and water were provided ad libitium. The drug was administered orally in 0.5 ml of 2.5% Emulphor (unless otherwise indicated). The tumor was measured the day after treatment ended with two dimensional measurements (width and length) of the tumor taken using automated digital calipers interfaced to a microcomputer. Approximate weight for the tumor was calculated using the following formula [Worzalla, J. F., et al., Invest. New Drugs, 8, 241 (1990], (tumor weight in mg)=(width in mm)^2 ×(length in mm)/2.
(§3) At least one control group of an equal number of mice was treated with the same volume of 2.5% Emulphor only. The percent inhibition was determined by subtracting the ratio of the mean tumor size of the test group relative to the control group from one and multiplying the result times 100.
(§4) The results of several experiments in mice bearing a 6C3HED lymphosarcoma (or other tumor where indicated) when the indicated compounds were administered are provided in Table 2. In Table 2, column 1 gives the Example number of the compound used, column 2 lists the dose level in mg/kg, column 3 provides the percent inhibition of tumor growth, column 4 gives the number of mice which died relative to the total number of animals in the group, column 5 gives the method of administration of the compound, and column 6 gives the dosage schedule. The protocol used with other tumors was the same as with the 6C3HED lymphosarcoma.

[3] = test system: LX1
Experimental: as §1, §2, §3, §4

[4] = oral, 500 mg/kg, BIDX 14, from day 14 after implant
[5] = oral, 3 mg/kg, BIDX 14, from day 7 after implant

Cc1ccc(S(=N)(=O)NC(=O)Nc2ccc(Cl)cc2)cc1 (centres unmarked) [Example 2, N-[[(4-chlorophenyl)amino]carbonyl]-4-methylbenzenesulfonimidamide]
Tox/Tot (mice which died / total) ([1]; IP, 150 mg/kg, DX 8): 1/10 | Tox/Tot (mice which died / total) ([1]; IP, 300 mg/kg, DX 8): 6/10 | Tox/Tot (mice which died / total) ([1]; IV, 12.5 mg/kg, DX 8): 0/10 | Tox/Tot (mice which died / total) ([1]; IV, 25 mg/kg, DX 8): 1/10 | inhibition in vivo at 150 mg/kg ([1]; Mus musculus, 6C3HED, ip, read-out: % inhibition of tumor growth, IP, 150 mg/kg, DX 8): 92% | inhibition in vivo at 300 mg/kg ([1]; Mus musculus, 6C3HED, ip, read-out: % inhibition of tumor growth, IP, 300 mg/kg, DX 8): 98% | inhibition in vivo at 12.5 mg/kg ([1]; Mus musculus, 6C3HED, iv, read-out: % inhibition of tumor growth, IV, 12.5 mg/kg, DX 8): 36% | inhibition in vivo at 25 mg/kg ([1]; Mus musculus, 6C3HED, iv, read-out: % inhibition of tumor growth, IV, 25 mg/kg, DX 8): 52% | inhibition in vivo at 50 mg/kg ([1]; Mus musculus, 6C3HED, po, read-out: % inhibition of tumor growth, oral, 50 mg/kg, BIDX 8): 95% | inhibition in vivo at 75 mg/kg ([1]; Mus musculus, 6C3HED, po, read-out: % inhibition of tumor growth, oral, 75 mg/kg, DX 8): 76% | inhibition in vivo at 100 mg/kg ([1]; Mus musculus, 6C3HED, po, read-out: % inhibition of tumor growth, oral, 100 mg/kg, BIDX 8): 96% | inhibition in vivo at 150 mg/kg ([1]; Mus musculus, 6C3HED, po, read-out: % inhibition of tumor growth, oral, 150 mg/kg, DX 8): 74% | inhibition in vivo at 200 mg/kg ([1]; Mus musculus, 6C3HED, po, read-out: % inhibition of tumor growth, oral, 200 mg/kg, BIDX 8): 98% | inhibition in vivo at 300 mg/kg ([1]; Mus musculus, 6C3HED, po, read-out: % inhibition of tumor growth, oral, 300 mg/kg, DX 8): 82% | inhibition in vivo at 400 mg/kg ([1]; Mus musculus, 6C3HED, po, read-out: % inhibition of tumor growth, oral, 400 mg/kg, BIDX 8): 99% | inhibition in vivo at 600 mg/kg ([1]; Mus musculus, 6C3HED, po, read-out: % inhibition of tumor growth, oral, 600 mg/kg, DX 8): 99% | inhibition in vivo at 800 mg/kg ([1]; Mus musculus, 6C3HED, po, read-out: % inhibition of tumor growth, oral, 800 mg/kg, BIDX 8): 99% | inhibition in vivo at 1200 mg/kg ([1]; Mus musculus, 6C3HED, po, read-out: % inhibition of tumor growth, oral, 1200 mg/kg, DX 8): 100% | Tox/Tot (mice which died / total) ([1]; oral, 50 mg/kg, BIDX 8): 0/10 | Tox/Tot (mice which died / total) ([1]; oral, 75 mg/kg, DX 8): 0/10 | Tox/Tot (mice which died / total) ([1]; oral, 100 mg/kg, BIDX 8): 0/10 | % inhibition of tumor growth ([1]; oral, 150 mg/kg, DX 8): 93% | Tox/Tot (mice which died / total) ([1]; oral, 150 mg/kg, DX 8): 0/10 | Tox/Tot (mice which died / total) ([1]; oral, 200 mg/kg, BIDX 8): 0/10 | % inhibition of tumor growth ([1]; oral, 300 mg/kg, DX 8): 95% | Tox/Tot (mice which died / total) ([1]; oral, 300 mg/kg, DX 8): 0/10 | Tox/Tot (mice which died / total) ([1]; oral, 400 mg/kg, BIDX 8): 0/10 | Tox/Tot (mice which died / total) ([1]; oral, 600 mg/kg, DX 8): 0/10 | Tox/Tot (mice which died / total) ([1]; oral, 800 mg/kg, BIDX 8): 1/10 | Tox/Tot (mice which died / total) ([1]; oral, 1200 mg/kg, DX 8): 0/10 | Tox/Tot (mice which died / total) ([2]; oral, 250 mg/kg, BIDX 14, from day 14 after implant): 2/9 | % inhibition of tumor growth [2, 4]: TOX | Tox/Tot (mice which died / total) [2, 4]: 9/9 | % inhibition of tumor growth ([2]; po, 250 mg/kg, 336 h): 68% | % inhibition of tumor growth [3, 5]: 24% | Tox/Tot (mice which died / total) [3, 5]: 0/10 | Tox/Tot (mice which died / total) ([3]; oral, 10 mg/kg, BIDX 14, from day 7 after implant): 0/10 | Tox/Tot (mice which died / total) ([3]; oral, 30 mg/kg, BIDX 14, from day 7 after implant): 0/10 | Tox/Tot (mice which died / total) ([3]; oral, 100 mg/kg, BIDX 14, from day 7 after implant): 0/10 | Tox/Tot (mice which died / total) ([3]; oral, 300 mg/kg, BIDX 14, from day 7 after implant): 5/10 | % inhibition of tumor growth ([3]; po, 10 mg/kg, 168 h): 18% | % inhibition of tumor growth ([3]; po, 30 mg/kg, 168 h): 28% | % inhibition of tumor growth ([3]; po, 100 mg/kg, 168 h): 51% | % inhibition of tumor growth ([3]; po, 300 mg/kg, 168 h): 66%
